# In patent US20250332212A1, “METHOD FOR TREATING OR PREVENTING ALOPECIA” (Suzhou Mingren Pharmaceutical Biotechnology Co., Ltd., priority 2024, published 2025):
# Square brackets hold non-standard residues; d marks the D form. Ends that are not written are not given here. pS = N[C@@H](COP(=O)(O)O)C(=O)O
# Key:
# integrin β1 = test: Integrin β1 expression in skin tissue (qPCR, immunoblotting, immunofluorescence); assay type: in vivo, mouse
# Description: In this example, the mRNA expression levels of RGD-targeting molecules in the skin tissues of three groups of mice, namely, the AGA model control group, the model group and the JP1-treated group, were further examined.
# To verify whether JP1 targeted integrin molecules are localized in hair follicles in the skin tissue, this example detected the expression levels, tissue localization, and distribution of integrin αv and integrin β1 in the skin tissue of the mouse model in Example 6 using immunofluorescence staining.
# (§1) 4.1) Protein extraction: 70 mg of skin tissue was placed in a 1.5 mL centrifuge tube, and 500 μL of tissue lysate RIPA containing protease inhibitor and phosphatase inhibitor was added. The tissue was placed on an ice box, pulverized by a tissue grinder, and then ultrasonically crushed to obtain a tissue suspension, which was then placed in a rotary windmill at 4° C. to be lysed for 2 h. The centrifuge was set at 12,000×g, 4° C., centrifuged for 15 min, and the supernatant was collected as the total protein.
# (§2) 5.1) Heating of protein samples: the total protein content of each tissue was 50 μg; calculate the volume of a corresponding protein sample, make up the volume with saline to 16 μL, then add 4 μL of 5×SDS sampling buffer, heat at 100° C. for 5 min, and then cool at room temperature and store at −20° C.
# 7.1) Dilute the specific gene amplification primers to 10 µM in ddH2O, prepare the qPCR reaction system according to the instructions in the kit and add them sequentially into a 384-well plate.
# 7.3) Relative mRNA expression levels of genes were calculated by the […] relative quantification method using GAPDH as an internal reference.
# 9.5) Primary antibody incubation: the tissue was circled by the histochemical pen, about 50 μL of primary antibody was added dropwise to the tissue, and incubated in a wet box overnight at 4° C., washed 3 times with PBS.
# [1] = test system: SP1, Wnt10a, Wnt10b and β-catenin; test: Immunoblotting of SP1 and downstream molecules in skin, Animal model III; assay type: in vivo, mouse; details: 1% JP1
# Description: as §1, §2
# 5.7) Primary antibody incubation: the cut protein bands were placed into the corresponding primary antibody and incubated at 4° C. on a shaker overnight, washed with TBST 3 times for 10 min/time.
substance,measurement,setting,value
"FPGSDRF-RGD (FPG[pS]DRFRGD) [JP1, amino acid S is phosphorylated; JWA peptide]","integrin β1 expression, immunofluorescence staining","integrin β1; each JP1 intervention group, localized in the site of hair follicles",elevated
same,integrin β1 protein level (TP-down-regulated),"integrin β1; skin tissue, immunoblotting, JP1 P<0.01",reversed
same,integrin β1 expression at the end of the model,"integrin β1; skin tissue, qPCR, P<0.01",returned to control levels
same,integrin β1 mRNA expression after JP1 intervention,"integrin β1; skin tissue, qPCR, decreased in TP model group, P<0.01",significantly elevated
same,"expression levels of key molecules (SP1, Wnt10a, Wnt10b, β-catenin), day 4",[1],did not change significantly
same,"protein expression levels of four molecules (SP1, Wnt10a, Wnt10b, β-catenin), day 8",[1],increased significantly
